Biological target: Tie-2 (Homo sapiens, UniProt Q02763)
Assay: Tie-2 tyrosine kinase activity: kinase-dependent ATP consumption (pEY substrate, luciferase/luciferin chemiluminescence) or 33P-ATP incorporation into substrate
Assay type: biochemical
Conditions: Tie-2 (human enzyme) inhibition, Table 2, class symbols A-D
Experimental: One measure of inhibition is Ki. […] The Ki for a compound is determined from the IC50 based on three assumptions. First, only one compound molecule binds to the enzyme and there is no cooperativity. […] Third, the enzymatic rate of the enzyme-inhibitor complex is zero. The rate (i.e., compound concentration) data are fitted to the equation:
[formula] where V is the observed rate, Vmax, is the rate of the free enzyme, I0 is the inhibitor concentration, E0 is the enzyme concentration, and Kd is the dissociation constant of the enzyme-inhibitor complex.
Tyrosine kinase activity is determined by 1) measurement of kinase-dependent ATP consumption by in the presence of a generic substrate such as polyglutamine, tyrosine (pEY), by luciferase/luciferin-mediated chemiluminescence or; 2) incorporation of radioactive phosphate derived from ^33P-ATP into a generic substrate which has been absorbed onto the well surface of polystyrene microtiter plates. Phosphorylated substrate products are quantified by scintillation spectrometry.
Inhibition is indicated as IC50 with following key: A=IC50 less than 50 nM, B=IC50 greater than 50 nM, but less than or equal to 1000 nM, C=IC50 greater than 1000 nM, but less than 10,000 nM, and D=IC50 10,000 nM or greater. The abbreviation for human enzyme, Tie-2, is defined as tyrosine kinase with immunoglobulin and EGF repeats.

Chain of Tie-2 (Q02763 23-1124): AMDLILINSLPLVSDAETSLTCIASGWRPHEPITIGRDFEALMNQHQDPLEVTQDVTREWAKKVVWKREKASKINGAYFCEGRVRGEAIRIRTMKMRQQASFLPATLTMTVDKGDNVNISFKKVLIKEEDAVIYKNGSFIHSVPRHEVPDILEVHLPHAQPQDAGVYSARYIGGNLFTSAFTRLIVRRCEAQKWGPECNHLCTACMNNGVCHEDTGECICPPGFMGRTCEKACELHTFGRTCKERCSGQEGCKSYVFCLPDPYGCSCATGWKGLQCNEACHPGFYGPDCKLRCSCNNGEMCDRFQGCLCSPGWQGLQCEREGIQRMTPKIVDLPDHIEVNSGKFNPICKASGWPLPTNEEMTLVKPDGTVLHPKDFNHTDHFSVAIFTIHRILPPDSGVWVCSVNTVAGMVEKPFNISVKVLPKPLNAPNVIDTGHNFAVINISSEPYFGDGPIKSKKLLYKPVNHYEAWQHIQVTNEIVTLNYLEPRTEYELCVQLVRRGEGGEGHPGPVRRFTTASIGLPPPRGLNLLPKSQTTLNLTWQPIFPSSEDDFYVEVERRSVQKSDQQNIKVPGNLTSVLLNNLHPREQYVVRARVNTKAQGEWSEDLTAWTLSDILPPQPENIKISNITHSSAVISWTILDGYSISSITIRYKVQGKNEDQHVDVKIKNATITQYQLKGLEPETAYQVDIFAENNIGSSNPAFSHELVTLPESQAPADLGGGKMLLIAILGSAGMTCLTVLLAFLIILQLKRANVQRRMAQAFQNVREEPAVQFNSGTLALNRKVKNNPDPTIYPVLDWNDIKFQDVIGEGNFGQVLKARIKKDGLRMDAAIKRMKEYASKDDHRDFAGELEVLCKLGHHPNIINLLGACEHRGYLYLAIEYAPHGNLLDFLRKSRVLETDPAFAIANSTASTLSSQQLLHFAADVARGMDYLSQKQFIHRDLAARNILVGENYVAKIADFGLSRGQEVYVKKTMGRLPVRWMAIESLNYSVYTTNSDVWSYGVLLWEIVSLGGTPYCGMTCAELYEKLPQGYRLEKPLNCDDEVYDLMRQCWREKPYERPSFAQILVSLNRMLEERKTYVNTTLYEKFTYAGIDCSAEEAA

Row | Compound | IC50
1 | O=C(Cc1cccc2ccccc12)N(CCn1nc(-c2ccncc2)nc1-c1cccc(C(F)(F)F)c1)C1CCCC1 [Entry 45, N-cyclopentyl-2-naphthalen-1-yl-N-(2-{3-pyridin-4-yl-5-[3-(trifluoromethyl)phenyl]-1H-1,2,4-triazol-1-yl}ethyl)acetamide] | < 0.05 µM
2 | COc1ccc(-c2nc(-c3ccncc3)n(CCCN(C(=O)Cc3cccc4ccccc34)C3CCCC3)n2)cc1Cl [Entry 9, N-(3-{3-[3-chloro-4-(methyloxy)phenyl]-5-pyridin-4-yl-1H-1,2,4-triazol-1-yl}propyl)-N-cyclopentyl-2-naphthalen-1-ylacetamide] | ≥ 10 µM
3 | O=C(Cc1cccc2ccccc12)N(CCn1nc(-c2ccc(Cl)cc2Cl)nc1-c1ccncc1)C1CCCC1 [Entry 75, N-cyclopentyl-N-{2-[3-(2,4-dichlorophenyl)-5-pyridin-4-yl-1H-1,2,4-triazol-1-yl]ethyl}-2-naphthalen-1-ylacetamide] | 1 to 10 µM
4 | COc1cccc(-c2nc(-c3ccncc3)nn2CCN(C(=O)Cc2cccc3ccccc23)C2CCCC2)c1 [Entry 22, N-cyclopentyl-N-(2-{5-[3-(methyloxy)phenyl]-3-pyridin-4-yl-1H-1,2,4-triazol-1-yl}ethyl)-2-naphthalen-1-ylacetamide] | < 0.05 µM
5 | COc1ccc(-c2nc(-c3ccncc3)nn2CCN(C(=O)Nc2ccccc2-c2ccccc2)C2CCCC2)cc1Cl [Entry 102, N′-biphenyl-2-yl-N-(2-{5-[3-chloro-4-(methyloxy)phenyl]-3-pyridin-4-yl-1H-1,2,4-triazol-1-yl}ethyl)-N-cyclopentylurea] | ≥ 10 µM
6 | CCOC(=O)Cn1nc(-c2cc(Cl)cc(Cl)c2)nc1-c1ccncc1 [Entry 16, ethyl [3-(3,5-dichlorophenyl)-5-pyridin-4-yl-1H-1,2,4-triazol-1-yl]acetate] | ≥ 10 µM
7 | O=C(Cc1cccc2ccccc12)N(CCn1nc(-c2cccc(Br)c2)nc1-c1ccncc1)C1CCCC1 [Entry 66, N-{2-[3-(3-bromophenyl)-5-pyridin-4-yl-1H-1,2,4-triazol-1-yl]ethyl}-N-cyclopentyl-2-naphthalen-1-ylacetamide] | ≥ 10 µM
8 | COc1ccc(-c2nc(-c3ccncc3)nn2CCN(C(=O)Nc2c(Cl)cc(Cl)cc2Cl)C2CCCC2)cc1Cl [Entry 137, N-(2-{5-[3-chloro-4-(methyloxy)phenyl]-3-pyridin-4-yl-1H-1,2,4-triazol-1-yl}ethyl)-N-cyclopentyl-N′-(2,4,6-trichlorophenyl)urea] | ≥ 10 µM
9 | COc1ccc(OC)c(NC(=O)N(CCn2nc(-c3ccncc3)nc2-c2ccc(OC)c(Cl)c2)C2CCCC2)c1 [Entry 120, N′-[2,5-bis(methyloxy)phenyl]-N-(2-{5-[3-chloro-4-(methyloxy)phenyl]-3-pyridin-4-yl-1H-1,2,4-triazol-1-yl}ethyl)-N-cyclopentylurea] | ≥ 10 µM
10 | CCCNC(=O)N(CCn1nc(-c2ccncc2)nc1-c1ccc(OC)c(Cl)c1)C1CCCC1 [Entry 110, N-(2-{5-[3-chloro-4-(methyloxy)phenyl]-3-pyridin-4-yl-1H-1,2,4-triazol-1-yl}ethyl)-N-cyclopentyl-N′-propylurea] | ≥ 10 µM
11 | Cc1nc(-c2ccnc(N3CCOCC3)c2)nn1CCN(C(=O)Cc1cccc2ccccc12)C1CCCC1 [Entry 163, N-cyclopentyl-N-{2-[5-methyl-3-(2-morpholin-4-ylpyridin-4-yl)-1H-1,2,4-triazol-1-yl]ethyl}-2-naphthalen-1-ylacetamide] | 1 to 10 µM
12 | O=C(Cc1cccc2ccccc12)N(CCn1nc(-c2cccs2)nc1-c1ccncc1)C1CCCC1 [Entry 19, N-cyclopentyl-2-naphthalen-1-yl-N-{2-[5-pyridin-4-yl-3-(2-thienyl)-1H-1,2,4-triazol-1-yl]ethyl}acetamide] | 0.05 to 1 µM
13 | O=C(Cc1cccc2ccccc12)N(CCn1nc(-c2ccc3c(c2)OCO3)nc1-c1ccncc1)C1CCCC1 [Entry 64, N-{2-[3-(1,3-benzodioxol-5-yl)-5-pyridin-4-yl-1H-1,2,4-triazol-1-yl]ethyl}-N-cyclopentyl-2-naphthalen-1-ylacetamide] | 1 to 10 µM
14 | COc1ccc(-c2nc(-c3ccncc3)nn2CCN(C(=O)NC(C)C)C2CCCC2)cc1Cl [Entry 108, N-(2-{5-[3-chloro-4-(methyloxy)phenyl]-3-pyridin-4-yl-1H-1,2,4-triazol-1-yl}ethyl)-N-cyclopentyl-N′-(1-methylethyl)urea] | ≥ 10 µM
15 | O=C(Cc1cccc2ccccc12)N(CCn1cnc(-c2ccncc2)n1)C1CCCC1 [Entry 44, N-cyclopentyl-2-naphthalen-1-yl-N-[2-(3-pyridin-4-yl-1H-1,2,4-triazol-1-yl)ethyl]acetamide] | < 0.05 µM
16 | COc1ccc(-c2nc(-c3ccncc3)nn2CCN(C(=O)Nc2ccccc2F)C2CCCC2)cc1Cl [Entry 115, N-(2-{5-[3-chloro-4-(methyloxy)phenyl]-3-pyridin-4-yl-1H-1,2,4-triazol-1-yl}ethyl)-N-cyclopentyl-N′-(2-fluorophenyl)urea] | ≥ 10 µM
17 | COc1ccc(-c2nc(-c3ccncc3)nn2CCN(C(=O)Nc2ccc(F)c(Cl)c2)C2CCCC2)cc1Cl [Entry 153, N′-(3-chloro-4-fluorophenyl)-N-(2-{5-[3-chloro-4-(methyloxy)phenyl]-3-pyridin-4-yl-1H-1,2,4-triazol-1-yl}ethyl)-N-cyclopentylurea] | ≥ 10 µM
18 | Cc1nc(-c2ccncc2)nn1CCN(C(=O)Cc1cccc2ccccc12)C1CCCCC1 [Entry 179, N-cyclohexyl-N-[2-(5-methyl-3-pyridin-4-yl-1H-1,2,4-triazol-1-yl)ethyl]-2-naphthalen-1-ylacetamide] | < 0.05 µM
19 | CCOC(=O)Cn1nc(-c2ccc(OC)c(Cl)c2)nc1-c1ccncc1 [Entry 4, ethyl {3-[3-chloro-4-(methyloxy)phenyl]-5-pyridin-4-yl-1H-1,2,4-triazol-1-yl}acetate] | ≥ 10 µM
20 | O=C(Cc1cccc2ccccc12)N(CCn1nc(-c2ccncc2)nc1-c1ccc(O)c(Cl)c1)C1CCCC1 [Entry 1, N-{2-[5-(3-chloro-4-hydroxyphenyl)-3-pyridin-4-yl-1H-1,2,4-triazol-1-yl]ethyl}-N-cyclopentyl-2-naphthalen-1-ylacetamide] | < 0.05 µM
21 | CCCCNc1cc(-c2nc(C)n(CCN(C(=O)Cc3cccc4ccccc34)C3CCCC3)n2)ccn1 [Entry 173, N-(2-{3-[2-(butylamino)pyridin-4-yl]-5-methyl-1H-1,2,4-triazol-1-yl}ethyl)-N-cyclopentyl-2-naphthalen-1-ylacetamide] | < 0.05 µM
22 | COc1ccc(-c2nc(-c3ccncc3)nn2CCN(C(=O)Nc2ccc(F)c(F)c2)C2CCCC2)cc1Cl [Entry 159, N-(2-{5-[3-chloro-4-(methyloxy)phenyl]-3-pyridin-4-yl-1H-1,2,4-triazol-1-yl}ethyl)-N-cyclopentyl-N′-(3,4-difluorophenyl)urea] | 1 to 10 µM
23 | O=C(Cc1cccc2ccccc12)N(CCc1nc(-c2ccncc2)no1)C1CCCC1 [Entry 52, N-cyclopentyl-2-naphthalen-1-yl-N-[2-(3-pyridin-4-yl-1,2,4-oxadiazol-5-yl)ethyl]acetamide] | 0.05 to 1 µM
24 | CCNc1cc(-c2nc(C)n(CCN(C(=O)Cc3cccc4ccccc34)C3CCCC3)n2)ccn1 [Entry 166, N-cyclopentyl-N-(2-{3-[2-(ethylamino)pyridin-4-yl]-5-methyl-1H-1,2,4-triazol-1-yl}ethyl)-2-naphthalen-1-ylacetamide] | < 0.05 µM
25 | COc1ccc(-c2nc(-c3ccncc3)nn2CCN(C(=O)c2ccc3ccccc3c2)C2CCCC2)cc1Cl [Entry 21, N-(2-{5-[3-chloro-4-(methyloxy)phenyl]-3-pyridin-4-yl-1H-1,2,4-triazol-1-yl}ethyl)-N-cyclopentylnaphthalene-2-carboxamide] | ≥ 10 µM
26 | COc1ccc(-c2nc(-c3ccncc3)[nH]c2CCN(C(=O)Cc2cccc3ccccc23)C2CCCC2)cc1 [Entry 54, N-cyclopentyl-N-(2-{4-[4-(methyloxy)phenyl]-2-pyridin-4-yl-1H-imidazol-5-yl}ethyl)-2-naphthalen-1-ylacetamide] | 0.05 to 1 µM
27 | C=C(C)c1cccc(C(C)(C)NC(=O)N(CCn2nc(-c3ccncc3)nc2-c2ccc(OC)c(Cl)c2)C2CCCC2)c1 [Entry 114, N-(2-{5-[3-chloro-4-(methyloxy)phenyl]-3-pyridin-4-yl-1H-1,2,4-triazol-1-yl}ethyl)-N-cyclopentyl-N′-{1-methyl-1-[3-(1-methylethenyl)phenyl]ethyl}urea] | ≥ 10 µM
28 | COc1ccc(-c2nc(-c3ccncc3)nn2CCN(C(=O)Nc2cccc(C)c2C)C2CCCC2)cc1Cl [Entry 127, N-(2-{5-[3-chloro-4-(methyloxy)phenyl]-3-pyridin-4-yl-1H-1,2,4-triazol-1-yl}ethyl)-N-cyclopentyl-N′-(2,3-dimethylphenyl)urea] | 1 to 10 µM
29 | COc1ccc(-c2nc(-c3ccncc3)nn2CCN(C(=O)Cc2cccc3ccccc23)C2CCCC2)cc1OC [Entry 41, N-(2-{5-[3,4-bis(methyloxy)phenyl]-3-pyridin-4-yl-1H-1,2,4-triazol-1-yl}ethyl)-N-cyclopentyl-2-naphthalen-1-ylacetamide] | < 0.05 µM
30 | Cc1nc(-c2ccnc(NCCN3CCCCC3)n2)nn1CCN(C(=O)Cc1cccc2ccccc12)C1CCCC1 [Entry 183, N-cyclopentyl-N-[2-(5-methyl-3-{2-[(2-piperidin-1-ylethyl)amino]pyrimidin-4-yl}-1H-1,2,4-triazol-1-yl)ethyl]-2-naphthalen-1-ylacetamide] | < 0.05 µM
